Measured values taken from EP4813991A1 (iLeadBMS Co., Ltd., priority 2023, dated 2025).
pIC50: −log10 of the molar value.

Columns and labels:
[1] = test system: MDA-MB-231 breast cancer cells; assay: Proliferation inhibitory activity assay against MDA-MB-231 breast cancer cells; type: cell-based; details: Homo sapiens, 72 hours, CellTiter Glo, relative IC50
Outline: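 Cells grown in L-15 with 10% FBS at 37 °C, 0% CO2, then exposed next day to compounds at 9 concentrations (DMSO vehicle) for 72 h. Viability read by CellTiter Glo luminescence; relative IC50 from dose-response curve fit.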

CDK2 = CDK2 (Homo sapiens, UniProt P24941); assay: CDK2 kinase inhibitory activity assay and selectivity over CDK12; type: biochemical; details: for pIC50: kinase reaction 120 minutes, 33P-gamma-ATP; for CDK2/CDK12: ratio of CDK2 IC50 to CDK12 IC50
Experimental: Before initiating the CDK1 and CDK2 kinase reactions, each Example compound was dissolved and diluted in DMSO as a solvent across 9 concentration ranges at room temperature. The diluted solutions were then incubated with a mixture of kinase and substrate (and cofactors, if required) for 20 minutes. Next, radioisotope-labeled ATP (^33P-gamma-ATP) was added to proceed with the kinase reaction at room temperature for 120 minutes. After the reaction was completed, the reaction mixture was transferred to a filter paper that binds the radioisotope-labeled catalytic product (^33P-substrate). Unreacted ^33P-ATP was removed by washing with 0.75 % phosphoric acid, and then the radioactive phosphorylated substrate remaining on the filter paper was measured. Kinase activity data were expressed as a percentage of the kinase activity remaining in the test sample compared to a DMSO control group. The half-maximal inhibitory concentration (IC50) for each kinase was calculated using Prism software.
The CDK1 and CDK2 kinase inhibitory activities of the Example compounds measured by the above method were evaluated according to the following criteria, and the results are presented in Table 14.

BT-20 cells = assay: Breast cancer cell proliferation inhibitory activity, BT-20; type: cell-based; details: Homo sapiens, 72 hours, CellTiter Glo, relative IC50
Experimental: Experiments were conducted using three types of breast cancer cell lines to measure the cell proliferation inhibitory ability of each Example compound. For HCC70 cells, 100 µL of cell suspension was dispensed into a 96-well plate using RPMI1640 (Invitrogen) medium containing 10 % FBS, followed by incubation in a cell incubator at 37 °C and 5 % CO2. For BT-20 cells, 100 µL of cell suspension was dispensed into a 96-well plate using EMEM (Invitrogen) medium containing 10 % FBS, followed by incubation in a cell incubator at 37 °C and 5 % CO2. For MDA-MB-436 cells, 100 µL of cell suspension was dispensed into a 96-well plate using L-15 (Invitrogen) medium containing 10 % FBS, followed by incubation in a cell incubator at 37 °C and 0 % CO2. The next day, each Example compound dissolved and diluted in DMSO across 9 concentration ranges and a DMSO control group were treated on the cells for 72 hours. After completion of the compound treatment, 100 µL of CellTiter Glo (Promega) reagent was added to each well of the 96-wellplate, followed by shaking for 10 minutes and standing at room temperature for 10 minutes. After inserting the 96-well plate into an Envision plate reader (PerkinElmer), luminescence signals were measured. Relative IC50 values were calculated by fitting a dose-response curve using XL fit (IDBS Ltd) software.
The breast cancer cell proliferation inhibitory activities of the Example compounds measured by the method described above were evaluated according to the following criteria, and the results are presented in Table 15.

SNU-1 = assay: Gastric cancer cell proliferation inhibitory activity (CellTiter Glo), SNU-1; type: cell-based; details: Homo sapiens, SNU1, 72 hours, relative IC50
Experimental: Experiments were performed using four types of gastric cancer cell lines (AGS, SNU-1, KATO-III, and MKN45) to measure the cell proliferation inhibitory ability of each Example compound. For AGS cells, 90 µL of cell suspension was dispensed into a 96-well plate using F-12K (Gibco) medium containing 10 % FBS, followed by incubation in a cell incubator at 37 °C and 5 % CO2. For SNU-1 and MKN45 cells, 90 µL of cell suspension was dispensed into a 96-well plate using RPMI1640 (Gibco) medium containing 10 % FBS, followed by incubation in a cell incubator at 37 °C and 5 % CO2. For KATO-III cells, 90 uL of cell suspension was dispensed into a 96-well plate using IMDM (Gibco) medium containing 10 % FBS, followed by incubation in a cell incubator at 37 °C and 5 % CO2. The next day, each Example compound dissolved and diluted in DMSO across 9 concentration ranges and a DMSO control group were added at 10 µL to each 96-well plate and treated for 72 hours. After completion of the compound treatment, 100 µL of CellTiter Glo (Promega) reagent was added to each well of the 96-well plate, followed by shaking for 10 minutes and standing at room temperature for 10 minutes. Luminescence signals were measured after inserting the 96-well plate into an Envision plate reader (PerkinElmer). Relative IC50 values were calculated by fitting a dose-response curve using XLfit (IDBS Ltd) software.
The gastric cancer cell proliferation inhibitory activities of the Example compounds measured by the method described above were evaluated according to the following criteria, and the results are presented in Table 16.

| pIC50 (BT-20 cells) | pIC50 (SNU-1) | SMILES | pIC50 [1] | pIC50 (CDK2) | CDK2/CDK12 (CDK2) |
| --- | --- | --- | --- | --- | --- |
| ≥ 7.30 | ≥ 6.70 | CN1CCN(c2cc(NCc3nc4ccc(F)c(F)c4[nH]3)c3ncc(C(F)(F)F)n3n2)CC1 [Example 8, N-((6,7-difluoro-1H-benzo[d]imidazol-2-yl)methyl)-6-(4-methylpiperazin-1-yl)-3-(trifluoromethyl)imidazo[1,2-b]pyridazin-8-amine] | ≥ 7.30 | < 6.00 | B (100-fold < CDK1/CDK12 or CDK2/CDK12 ≤ 500-fold) |
| ≥ 7.30 | ≥ 6.70 | CN1CCN(c2cc(NCc3nc4cc(Cl)c(Cl)cc4[nH]3)c3ncc(C(F)(F)F)n3n2)CC1 [Example 29, N-((5,6-dichloro-1H-benzo[d]imidazol-2-yl)methyl)-6-(4-methylpiperazin-1-yl)-3-(trifluoromethyl)imidazo[1,2-b]pyridazin-8-amine] | ≥ 7.30 | < 6.00 | – |
| – | – | Nc1ncc(-c2cc(NCc3nc4cc(Cl)c(Cl)cc4[nH]3)c3ncc(C(F)(F)F)n3n2)cn1 [Example 40] | ≥ 7.30 | < 6.00 | – |

| SMILES | pIC50 (BT-20 cells) | pIC50 (SNU-1) | pIC50 [1] | pIC50 (CDK2) | CDK2/CDK12 (CDK2) |
| --- | --- | --- | --- | --- | --- |
| N#CC1CN(c2cc(NCc3nc4cc(Cl)c(Cl)cc4[nH]3)c3ncc(C(F)(F)F)n3n2)C1 [Example 30, 1-(8-(((5,6-dichloro-1H-benzol[d]imidazol-2-yl)methyl)amino)-3-(trifluoromethyl)imidazo[1,2-b]pyridazin-6-yl)azetidine-3-carbonitrile] | ≥ 7.30 | ≥ 6.70 | ≥ 7.30 | < 6.00 | C (CDK1/CDK12 or CDK2/CDK12 ≤ 100-fold) |
